Several values for one entry are separate records, joined by “and”; a condition that tells them apart may be missing. Equal entries are not always repeated.
What was measured:
[1] = in vivo; details: for AUC0-inf of Compound I-19 / AUC0-last of Compound I-19 / Cmax of Compound I-19 / MRT0-inf of Compound I-19 / MRT0-last of Compound I-19 / T1/2 of Compound I-19 / Tlast of Compound I-19 / Tmax of Compound I-19: male CD-1 mice; for plasma concentration of Compound I-19: single PO 6.654 mg/kg (as titled)
Method: Dose solutions were prepared freshly on each day of studies prior to dosing.
The animals were weighed immediately prior to dosing and the dose volume was calculated individually based the obtained body weight and the nominal dose volume. […] The nominal dose volume was 10 mL/kg in both studies.
Cage side observation was performed before and after dosing as well as at each scheduled sample collection time. The observation included appearance, posture, behavior, morbidity and mortality. Abnormal findings, if any, are required to be recorded in the study record and communicated with study director, veterinarian, and Supernus if necessary.
Approximately 40 μL blood was collected at each scheduled time point from saphenous veins. The actual sample collection time was within 1 min. of the nominal time for collections prior to or at 1 hour, and within 5% of the nominal values for collections post 1 hour.
The blood samples were placed in pre-labeled micro-centrifuge tubes containing K2EDTA as anticoagulant and kept on ice before they were processed to plasma within 30 minutes of collection by centrifugation at 4° C., 3000 g for 5 minutes. The plasma samples were stored at −70±10° C. until LC-MS/MS analysis.
Plasma concentrations below the LLOQ prior to Tmax were set to zero, and those after Tmax were excluded from PK calculation. The nominal dose and the nominal sample collection time were used for the calculation. The values of plasma concentrations and PK parameters are reported to three significant figures. The average values of each treatment group are presented as mean±SD.

[2] = target: T1, OATP1B3 (Homo sapiens, UniProt Q9NPD5); experiment: Uptake transporter inhibition assay, OATP1B3 (CCK-8)
T1 sequence (Q9NPD5 1-702): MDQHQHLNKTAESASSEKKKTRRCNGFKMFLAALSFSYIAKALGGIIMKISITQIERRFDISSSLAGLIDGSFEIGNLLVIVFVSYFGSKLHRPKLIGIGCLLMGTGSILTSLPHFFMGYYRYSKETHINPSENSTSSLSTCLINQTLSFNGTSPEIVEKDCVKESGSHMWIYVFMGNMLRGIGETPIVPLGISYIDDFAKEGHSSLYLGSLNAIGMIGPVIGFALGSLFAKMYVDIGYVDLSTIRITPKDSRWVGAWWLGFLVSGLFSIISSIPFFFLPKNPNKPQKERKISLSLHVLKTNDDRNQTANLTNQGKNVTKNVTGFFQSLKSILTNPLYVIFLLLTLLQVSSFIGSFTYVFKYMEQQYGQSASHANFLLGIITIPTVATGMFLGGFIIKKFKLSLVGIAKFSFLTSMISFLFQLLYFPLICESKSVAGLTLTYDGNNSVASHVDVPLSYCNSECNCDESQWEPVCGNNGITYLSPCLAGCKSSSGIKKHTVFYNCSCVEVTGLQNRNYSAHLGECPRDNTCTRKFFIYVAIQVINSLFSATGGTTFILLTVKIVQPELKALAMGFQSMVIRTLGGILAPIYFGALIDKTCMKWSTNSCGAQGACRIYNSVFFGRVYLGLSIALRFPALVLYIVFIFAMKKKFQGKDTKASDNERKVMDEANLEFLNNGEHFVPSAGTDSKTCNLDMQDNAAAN
Method: Uptake experiments were performed using HEK293 cells stably expressing the respective uptake transporters. The assays were conducted according to the actual SOLVO uptake transporter assay protocols (PR-ASY-UPT-General Protocol for Uptake Transporter Inhibition Assays).
Cells were cultured at 37° C. in a humidified atmosphere containing 5% CO2 and were plated onto standard 96-well tissue culture plates.
Before the experiment, the medium was removed, and the cells were washed twice with 100 μL of pre-warmed (37° C.) assay buffer listed in Table 15. The cells were pre-incubated at 37° C. for 30 minutes in assay buffer containing the test article at appropriate concentrations (Table 16), appropriate solvents for solvent controls and the reference inhibitor for reference inhibitor wells. After the pre-incubation step solutions were removed. Uptake experiments were performed at 37° C. in 50 μL of assay buffer containing the probe substrate and the test article or solvent and controls.
After the experiment, cells were washed twice with 100 μL of appropriate cold buffer and lysed with 150 μL scintillation cocktail. Radiolabeled probe substrate transport was determined by liquid scintillation counting.
Uptake of the probe substrate in control cells provided background activity values for all data points.

[3] = single IP Compound I-19 4.061 mg/kg, mean
[4] = single PO Compound I-19 6.645 mg/kg, individual animals
[5] = single PO Compound I-19 6.645 mg/kg, mean
[6] = 0.14 μM nominal, 0.09 μM NSB corrected, follow-up assay
[7] = 1.24 μM nominal, 0.86 μM NSB corrected, follow-up assay
[8] = 10.00 μM nominal, 6.60 μM NSB corrected
[9] = 11.11 μM nominal, 7.89 μM NSB corrected, follow-up assay
[10] = 33.33 μM nominal, 24.33 μM NSB corrected, follow-up assay
[11] = 100.00 μM nominal, 77.00 μM NSB corrected
[12] = 100.00 μM nominal, 100.00 μM NSB corrected, follow-up assay
[13] = […] nominal, 1.89 μM NSB corrected, follow-up assay

SMILES: Clc1ccc(C2(OCC3OCCO3)c3ccccc3C3=NCCN32)cc1 (centres unmarked) [Compound I-19]
- AUC0-inf of Compound I-19 [1, 3]: 483 ng·h/mL
- AUC0-last of Compound I-19 [1, 3]: 482 ng·h/mL
- Cmax of Compound I-19 [1, 3]: 373 ng/mL
- MRT0-inf of Compound I-19 [1, 3]: 69.6 min
- MRT0-last of Compound I-19 [1, 3]: 69 min
- T1/2 of Compound I-19 [1, 3]: 37.9 min
- Tlast of Compound I-19 [1, 3]: 5.33 h
- Tmax of Compound I-19 [1, 3]: 25 min
- plasma concentration of Compound I-19 ([1]; 0.500 h, mean): 4.55 ng/mL
- plasma concentration of Compound I-19 ([1]; 2.00 h, individual mice): BQL
- plasma concentration of Compound I-19 ([1]; 4.00 h, individual mice): BQL
- plasma concentration of Compound I-19 ([1]; 8.00 h, individual mice): BQL
- plasma concentration of Compound I-19 ([1]; 24.0 h, individual mice): BQL
- plasma concentration of Compound I-19 ([1]; […] h, individual mice): 2.78 ng/mL
- plasma concentration of Compound I-19 ([1]; […] h, individual mice, 6.654 mg/kg): BQL
- AUC0-inf of Compound I-19 [1, 4]: 6.92 ng·h/mL
- MRT0-inf of Compound I-19 [1, 4]: 50.2 min
- MRT0-last of Compound I-19 [1, 4]: 20.8 min and 15 min and 29.9 min
- T1/2 of Compound I-19 [1, 4]: 29.1 min
- Tmax of Compound I-19 [1, 4]: 30 min
- AUC0-last of Compound I-19 [1, 5]: 2.04 ng·h/mL
- Cmax of Compound I-19 [1, 5]: 4.27 ng/mL
- MRT0-last of Compound I-19 [1, 5]: 21.9 min
- Tlast of Compound I-19 [1, 5]: 0.583 h
- Tmax of Compound I-19 [1, 5]: 20 min
- Relative inhibition [2, 6]: 1%
- Relative transporter specific accumulation [2, 6]: 99.35 ± 3.01 % of control
- Transporter specific accumulation [2, 6]: 1,167.00 ± 32.35 cpm
- Relative inhibition [2, 7]: 8%
- Relative transporter specific accumulation [2, 7]: 91.63 ± 3.53 % of control
- Transporter specific accumulation [2, 7]: 1,076.33 ± 39.37 cpm
- Relative inhibition [2, 8]: 7%
- Relative transporter specific accumulation [2, 8]: 93.13 ± 0.99 % of control
- Transporter specific accumulation [2, 8]: 1,953.33 ± 8.60 cpm
- Relative inhibition [2, 9]: 20%
- Relative transporter specific accumulation [2, 9]: 80.11 ± 4.16 % of control
- Transporter specific accumulation [2, 9]: 941.00 ± 47.56 cpm
- Relative inhibition [2, 10]: 23%
- Relative transporter specific accumulation [2, 10]: 77.21 ± 2.52 % of control
- Transporter specific accumulation [2, 10]: 907.00 ± 27.52 cpm
- Relative inhibition [2, 11]: 50%
- Relative transporter specific accumulation [2, 11]: 50.40 ± 2.21 % of control
- Transporter specific accumulation [2, 11]: 1,057.00 ± 45.14 cpm
- Relative inhibition [2, 12]: 61%
- Relative transporter specific accumulation [2, 12]: 39.13 ± 2.03 % of control
- Transporter specific accumulation [2, 12]: 459.67 ± 23.17 cpm
- maximum inhibition of OATP1B3-mediated CCK-8 accumulation ([2]; 2-concentration assay, up to 100 μM (Compound A up to 30 μM)): 50%
- Maximum % inhibition ([2]; OATP1B3, HEK293 cells, CCK-8 (1 μM), NIO: no inhibition observed): 61%
- Relative inhibition [2, 13]: 4%
- Relative transporter specific accumulation [2, 13]: 96.17 ± 1.42 % of control
- Transporter specific accumulation [2, 13]: 1,129.67 ± 9.53 cpm
- maximum inhibition of OATP1B3-mediated CCK-8 accumulation ([2]; follow-up assay): 61%
- IC50 ([2]; follow-up assay, NSB-corrected concentrations): 82.8 µM

— patent US20250108038A1 (priority 2023, published 2025)
